# Measured values published in US20250002483A1, “S[…]-ALANINATE DERIVATIVES” (Bayer Aktiengesellschaft, priority 2021, published 2025).
# Assay: physchem
# Conditions: 25 °C, pH 4, aqueous buffer, thermodynamic from solid
# Procedure: 25 mg compound are placed in 2 ml solvent. […] Thereafter, the solution or suspension is filtered and the remaining solution is analyzed via HPLC. The solubility is determined by comparison of the total area of the substance peak to a calibration curve (external standard).
# Thereafter, the solution was centrifuged and analyzed via HPLC. The solubility was determined by comparison of the total area of the substance peak to a calibration curve (external standard). The measurements were conducted in triplicates.
structure (smiles),measurement,value
"CCc1c(N2CC[C@H](O)C2=O)cccc1S(=O)(=O)N[C@@H](CNC(=O)c1ccc(Cl)s1)C(=O)OCCc1nccn1C.Cl [Example 2, 2-(1-Methyl-1H-imidazol-2-yl)ethyl 3-[(5-chlorothiophene-2-carbonyl)amino]-N-{2-ethyl-3-[(3S)-3-hydroxy-2-oxopyrrolidin-1-yl]benzene-1-sulfonyl}-S-alaninate hydrochloride]",solubility,> 500 mg/mL
